Key:
[1] = tested on: BV2 (mouse microglia) cell line; assay: pHrodo-myelin phagocytosis/cell viability high content imaging assay: viability (cell count, nuclear area, nuclear intensity); conditions: 48 hours treatment
Summary of the method: (§1)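 Viability was read as total cell count per well by high-content imaging, with mean average nuclear intensity per cell profiling apoptosis (rise early, fall late). Compounds were given at 10 μM for 48 h, pHrodo-myelin being added for the final 20 h. Values are means of two points as % untreated control.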

[2] = tested on: HMC3 (human microglia) cell line; assay: as above; conditions: 48 hours treatment
Summary of the method: as §1

[3] = tested on: BV2 (mouse microglia) cell line; assay: pHrodo-myelin phagocytosis/cell viability high content imaging assay: phagocytosis signal; format: cell-based
Summary of the method: (§2)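 Mouse BV2 and human HMC3 microglia given pHrodo-myelin; phagocytosis and cell viability imaged together by high content imaging about 22 hours after myelin addition. Three measurements extracted, including intensity increase and decrease marking early and later apoptosis.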

[4] = tested on: HMC3 (human microglia) cell line; assay: as above; format: cell-based
Summary of the method: as §2

[5] = BV2 cells, 10 uM compound, 48 hours treatment, pHrodo-myelin final 20 hours
[6] = HMC3 cells, 10 uM compound, 48 hours treatment, pHrodo-myelin final 20 hours
[7] = BV2, compound 10 uM, pHrodo-myelin
[8] = HMC3, compound 10 uM, pHrodo-myelin

Row | SMILES | 1. Cell count (% control) ([1]; BV2 cells, 10 uM compound) | 2. Nuclear Area (% Control) ([1]; BV2 cells, 10 uM compound) | 3. Nuclear DNA Intensity (% control) ([1]; BV2 cells, 10 uM compound) | 1. Cell count (% control) ([2]; HMC3 cells, 10 uM compound) | 2. Nuclear Area (% Control) ([2]; HMC3 cells, 10 uM compound) | 3. Nuclear DNA Intensity (% control) ([2]; HMC3 cells, 10 uM compound) | 4. Phagocytosis (% control) [3, 5] | 4. Phagocytosis (% control) [4, 6] | 1. Cell count (% control) ([1]; BV2, compound 10 uM) | 2. Nuclear Area (% Control) ([1]; BV2, compound 10 uM) | 3. Nuclear DNA Intensity (% control) ([1]; BV2, compound 10 uM) | 1. Cell count (% control) ([2]; HMC3, compound 10 uM) | 2. Nuclear Area (% Control) ([2]; HMC3, compound 10 uM) | 3. Nuclear DNA Intensity (% control) ([2]; HMC3, compound 10 uM) | 4. Phagocytosis (% control) [3, 7] | 4. Phagocytosis (% control) [4, 8]
1 | O=S(=O)(c1ccc2c(c1)C(=NO)c1cc(S(=O)(=O)N3CCCCC3)ccc1-2)N1CCCCC1 [UNC10302976A] | 11.0 % control | 116.9 % Control | 256.7 % control | 69.8 % control | 63.2 % Control | 194.1 % control | 51.8 % control | 12.0 % control |  |  |  |  |  |  |  | 
2 | O=C(Nc1c[nH]nc1-c1nc2cc(CN3CCOCC3)ccc2[nH]1)NC1CC1 [UNC10126643A] | 6.1 % control | 158.4 % Control | 29.9 % control | 85.8 % control | 114.0 % Control | 123.7 % control | 1.0 % control | 64.5 % control |  |  |  |  |  |  |  | 
3 | Clc1ccccc1C(c1ccccc1)(c1ccccc1)n1ccnc1 [UNC10100375A] |  |  |  |  |  |  |  |  | 67.3 % control | 102.8 % Control | 90.2 % control | 105.9 % control | 98.8 % Control | 95.6 % control | 144.4 % control | 70.1 % control
4 | Cc1cccc(-c2nn3c(c2-c2ccnc4ccc(C(N)=O)cc24)CCC3)n1 [UNC10245080A] | 99.1 % control | 108.1 % Control | 97.4 % control | 126.0 % control | 104.6 % Control | 85.7 % control | 174.0 % control | 85.1 % control |  |  |  |  |  |  |  | 
5 | CN1C[C@H](Nc2cnn(C)c(=O)c2Br)C[C@H](c2ccccc2)C1 [UNC10303157A] |  |  |  |  |  |  |  |  | 85.0 % control | 105.0 % Control | 100.7 % control | 86.8 % control | 97.5 % Control | 100.9 % control | 145.8 % control | 103.4 % control
6 | Cc1cc(O)cc2c1[C@]1(C)CCC3C(C)(C)CCC[C@]3(C)[C@H]1C2 (some centres unmarked) [UNC10302703A] |  |  |  |  |  |  |  |  | 88.9 % control | 108.7 % Control | 100.3 % control | 107.3 % control | 104.4 % Control | 94.7 % control | 179.0 % control | 74.6 % control
7 | CNC(=O)CN1CCC(Oc2cc3c(Nc4cccc(Cl)c4F)ncnc3cc2OC)CC1 [UNC10302865A] | 102.4 % control | 110.1 % Control | 101.0 % control | 132.1 % control | 105.8 % Control | 90.8 % control | 68.8 % control | 152.7 % control |  |  |  |  |  |  |  | 
8 | CN(C)CCCn1c(N)c(-c2nc3ccccc3[nH]2)c2nc3ccccc3nc21 [UNC10302891A] | 121.8 % control | 105.7 % Control | 98.0 % control | 137.9 % control | 99.6 % Control | 97.0 % control | 109.5 % control | 44.4 % control |  |  |  |  |  |  |  | 
9 | Cl.NCCOCCOCCNC(=O)Cc1ccc(Nc2nc(NCc3ccc(F)cc3)nc(NCC3CCCCC3)n2)cc1 [UNC10302950A] | 46.4 % control | 117.0 % Control | 104.0 % control | 97.2 % control | 95.7 % Control | 118.1 % control | 232.8 % control | 36.3 % control |  |  |  |  |  |  |  | 
10 | CC[C@H](C)[C@H](N)C(=O)NCCN1CCOCC1.Cl.Cl [UNC10303094A] | 133.1 % control | 103.4 % Control | 103.6 % control | 133.1 % control | 103.2 % Control | 95.9 % control | 157.3 % control | 75.5 % control |  |  |  |  |  |  |  | 
11 | Cl.O=C(O)Cc1cccc(OCCCN(Cc2cccc(C(F)(F)F)c2Cl)CC(c2ccccc2)c2ccccc2)c1 [UNC10302974A] | 123.1 % control | 107.6 % Control | 102.2 % control | 138.8 % control | 100.4 % Control | 95.2 % control | 136.8 % control | 78.3 % control |  |  |  |  |  |  |  | 
12 | Cc1cc2c(cc1-c1cc(/C=C\C(=O)O)ccc1O)C(C)(C)CCC2(C)C [UNC10302903A] | 102.7 % control | 107.7 % Control | 96.7 % control | 106.9 % control | 99.9 % Control | 95.8 % control | 143.5 % control | 96.9 % control |  |  |  |  |  |  |  | 
13 | C=C(c1ccc(C(=O)O)cc1)c1cc2c(cc1C)C(C)(C)CCC2(C)C [UNC10302949A] | 91.0 % control | 109.3 % Control | 95.6 % control | 131.9 % control | 99.3 % Control | 94.9 % control | 117.0 % control | 79.3 % control |  |  |  |  |  |  |  | 
14 | CCC(=O)N1CCC(NC(=O)Nc2ccc(OC(F)(F)F)cc2)CC1 [UNC10302681A] | 105.6 % control | 99.0 % Control | 108.5 % control | 147.2 % control | 103.6 % Control | 94.9 % control | 102.7 % control | 96.8 % control |  |  |  |  |  |  |  | 
15 | O=C(/C=C/c1ccco1)Nc1ncc(Cc2ccccc2)s1 [UNC10302883A] | 36.1 % control | 95.3 % Control | 118.7 % control | 163.4 % control | 60.3 % Control | 203.4 % control | 12.7 % control | 17.7 % control |  |  |  |  |  |  |  | 
16 | Cn1nccc1Nc1nccc(-c2ccn([C@H](CO)c3ccc(Cl)c(F)c3)c(=O)c2)n1 [UNC8131A] |  |  |  |  |  |  |  |  | 15.3 % control | 134.5 % Control | 44.7 % control | 54.4 % control | 77.5 % Control | 167.5 % control | 0.00107 % control | 12.1 % control
